Data published in EP0017525A1, “Derivatives of tetrahydroalstonine, their preparation and their application as medicaments” (PIERRE FABRE S.A., priority 1979, dated 1980).

What was measured:
[1] = tested on: pression artérielle et membrane nictitante; assay: Adrenolytic activity in the anaesthetised cat; format: in vivo; settings: chat
From the text: (§1) Les propriétés adrénolytiques ont été recherchées chez le chat et le chien anesthésiés vis-à-vis de la pression artérielle et de la membrane nictitante (chat).

[2] = tested on: pression artérielle; assay: Adrenolytic activity and arterial pressure in the anaesthetised dog; format: in vivo; settings: chien, 0,1 à 10 mg/kg par voie intraveineuse
Description: as §1
Cette activité ne s'accompagne pas de diminution de la force de contraction cardiaque. L'inversion de l'hypertension à l'adrénaline commence dès la dose de 0,05 mg/kg.

[3] = tested on: excrétion urinaire provoquée par l'adrénaline; settings: rat; for augmentation de l'excrétion urinaire provoquée par l'adrénaline: 100 mg par voie orale; for absorption par voie orale: in vivo, po
[4] = Solubility
[5] = tested on: agrégation à l'ADP, au collagène et à l'ADP + adrénaline; assay: In vitro aggregation induced by ADP, collagen and ADP + adrenaline; format: cell-based
From the text: Les tétrahydroalstonates de sodium, de créatinol et d'imidazole sont actifs in vitro vis-à-vis de l'agrégation à l'ADP, au collagène et à l'ADP + adrénaline; les concentrations actives.variant de 1.10^-3M à 1.10^-5M selon les tests et les composés particuliers répondant à la formule générale I.

[6] = Acute toxicity, intravenous route; format: in vivo; settings: mouse, in vivo, iv; souris, voie intraveineuse; read-out: DL 50 (the source's name)
Description: (§2) Par voie injectable les composés de formule I ont été administrés jusqu'à 100 mg/kg, sans provoquer de mortalité chez le rat. A titre d'exemple, on précisera que la DL 50 par voie intraveineuse chez la souris est de 330 mg/kg pour le tétrahydroalstonate de sodium. La toxicité du tétrahydroalstonate de créatinol chez la souris,par voie intraveineuse calculée selon la méthode de Kärber est de 450 mg/kg.

[7] = tested on: souris; assay: Acute toxicity, intravenous route; format: in vivo; settings: voie intraveineuse, méthode de Kärber
Description: as §2

## COC(=O)C1=COC(C)C2CN3CCc4c([nH]c5ccccc45)C3CC12 (stereo not drawn) [raubasine, reference compound]
[1]
  dose pour laquelle l'adrénolyse est parfaitement nette: 2 mg/kg

## CC1OC=C(C(=O)O)C2CC3c4[nH]c5ccccc5c4CCN3CC12 (stereo not drawn) [tétrahydroalstonate de sodium, Tétrahydroalstonate de sodium]
[2]
  pression artérielle: diminution progressive de la pression artérielle proportionnelle à la dose
[3]
  augmentation de l'excrétion urinaire provoquée par l'adrénaline: réduisent l'augmentation de l'excrétion urinaire provoquée par l'adrénaline
  absorption par voie orale: bonne absorption par voie orale
[4]; 95% ethanol, organic solvent or mixture
  solubility: 70 mg/mL
[4]; chloroform, organic solvent or mixture
  solubility: 35 mg/mL
[4]; water
  solubility: 90 mg/mL
[1]; voie injectable
  activité adrénolytique comparée à la raubasine et à la tétrahydroalstonine: très nettement supérieure à celle de la raubasine et de la tétrahydroalstonine
[5]
  agrégation à l'ADP: actifs
  agrégation à l'ADP + adrénaline: actifs
  agrégation au collagène: actifs
[6]
  LD50: 330 mg/kg

## COC(=O)C1=COC(C)C2CN3CCc4c([nH]c5ccccc45)C3CC12 (stereo not drawn) [tétrahydroalstonine, reference compound]
[1]
  dose pour laquelle l'adrénolyse est parfaitement nette: 0,5 mg/kg

## Tétrahydroalstonate de créatinol
[2]
  pression artérielle: diminution progressive de la pression artérielle proportionnelle à la dose
[3]
  augmentation de l'excrétion urinaire provoquée par l'adrénaline: réduisent l'augmentation de l'excrétion urinaire provoquée par l'adrénaline
  absorption par voie orale: bonne absorption par voie orale
95% ethanol
  Solubilités : éthanol à 95: 5%
water
  Solubilités : eau: 5%
[1]; voie injectable
  activité adrénolytique comparée à la raubasine et à la tétrahydroalstonine: très nettement supérieure à celle de la raubasine et de la tétrahydroalstonine
  dose à laquelle les composés agissent (activité adrénolytique): 0,1 mg/kg
[5]
  agrégation à l'ADP: actifs
  agrégation à l'ADP + adrénaline: actifs
  agrégation au collagène: actifs
[7]
  toxicité: 450 mg/kg

## tétrahydroalstonate d'imidazole
[5]
  agrégation à l'ADP: actifs
  agrégation à l'ADP + adrénaline: actifs
  agrégation au collagène: actifs
